Test results: patent publication US10647680B2, “Urea compound, preparation method therefor and medical use thereof” (Ancureall Pharmaceutical (Shanghai) Co., Ltd., priority 2016, dated 2020)
“And” between values parts separate entries of the source, which are not always exact repeats. Identical values can stand only once.

Legend:
rat plasma protein = assay: Binding rate to plasma protein of rats (dialysis method); format: in vitro ADME
Description: The binding rate of compound 77 of the present invention to plasma protein at a rat plasma concentration of 2 uM was evaluated by dialysis method.
Procedure: The DMSO stock solution of compound 77 (10 mM) or the positive control propranolol (USP) was added to 500 uL of blank plasma. The final concentration of test substance in the plasma was 2 uM, and the final concentration of the positive control was 1 uM, in triplicate. 300 uL of prepared plasma samples was added to the plasma chamber, and 500 uL of dialysis buffer was added to the buffer chamber (phosphate buffer solution PBS contained 100 mM sodium phosphate and 150 mM sodium chloride, PH 7.2), sealed, and incubated for 4 h while shaking at 100 rpm, 37° C. After incubation, 50 uL sample was taken from the plasma chamber and buffer chamber, and 50 uL of PBS was added to plasma chamber samples, and 50 uL of blank plasma was added to the buffer chamber samples. Immediately, 3-fold methanol solution containing internal standard was added, to precipitate plasma protein. After centrifugation, the supernatant was taken for LC/MS/MS analysis. The plasma protein binding rate was calculated according to the following formula: % free state=(peak area ratio in the buffer chamber/the peak area ratio in the plasma chamber)×%, % binding state=100%−% free state.

[1] = molecular target: T1, hERG potassium ion channel (Homo sapiens, UniProt Q12809); assay: hERG test (whole cell model); format: cell-based; conditions: for Ratio (%): n=3
T1 construct: host or cells: HEK-293
T1 sequence (Q12809 whole entry): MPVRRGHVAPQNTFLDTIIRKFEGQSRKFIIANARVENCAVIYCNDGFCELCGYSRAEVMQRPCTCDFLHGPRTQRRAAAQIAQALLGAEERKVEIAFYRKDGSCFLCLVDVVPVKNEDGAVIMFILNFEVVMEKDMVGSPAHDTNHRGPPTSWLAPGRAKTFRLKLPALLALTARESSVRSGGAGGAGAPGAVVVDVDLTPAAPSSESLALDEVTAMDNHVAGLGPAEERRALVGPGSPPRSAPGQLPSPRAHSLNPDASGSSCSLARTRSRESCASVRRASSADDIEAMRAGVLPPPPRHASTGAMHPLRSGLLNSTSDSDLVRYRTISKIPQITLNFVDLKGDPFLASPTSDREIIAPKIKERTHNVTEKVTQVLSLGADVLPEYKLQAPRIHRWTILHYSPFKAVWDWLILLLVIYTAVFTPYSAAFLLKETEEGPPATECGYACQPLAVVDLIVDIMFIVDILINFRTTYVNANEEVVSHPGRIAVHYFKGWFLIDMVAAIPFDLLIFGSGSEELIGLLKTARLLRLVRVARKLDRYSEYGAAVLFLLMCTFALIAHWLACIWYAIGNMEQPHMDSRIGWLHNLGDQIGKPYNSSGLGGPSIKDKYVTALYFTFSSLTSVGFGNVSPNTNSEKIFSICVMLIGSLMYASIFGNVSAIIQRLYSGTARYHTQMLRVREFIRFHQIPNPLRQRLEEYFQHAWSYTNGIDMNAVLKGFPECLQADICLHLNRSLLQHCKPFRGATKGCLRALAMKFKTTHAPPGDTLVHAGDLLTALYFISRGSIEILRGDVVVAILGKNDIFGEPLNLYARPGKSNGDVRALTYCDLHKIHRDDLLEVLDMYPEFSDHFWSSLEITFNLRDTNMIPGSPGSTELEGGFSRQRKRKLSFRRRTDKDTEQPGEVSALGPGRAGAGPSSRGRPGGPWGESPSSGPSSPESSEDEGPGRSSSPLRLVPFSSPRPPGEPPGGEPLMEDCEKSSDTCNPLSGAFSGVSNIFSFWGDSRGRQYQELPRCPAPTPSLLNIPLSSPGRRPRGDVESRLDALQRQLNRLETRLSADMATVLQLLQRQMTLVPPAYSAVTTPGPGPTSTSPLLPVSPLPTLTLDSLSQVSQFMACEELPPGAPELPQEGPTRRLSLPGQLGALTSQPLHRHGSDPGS
Description: The whole cell model hERG test was performed with compound 77 of the present invention as a representative example, 30 uM Quinidine (Sigma) was used as a positive control.
Procedure: hERG potassium ion channel HEK-293 cells (Krius Biology) were over-expressed, and cultured at a 37° C., 5% CO2 incubator. The culture medium was DMEM supplemented with 15% fetal bovine serum and 1% penicillin-streptomycin. The stably transfected cells were inoculated to slides, with a cell density of less than 50%, and cultured overnight. The experimental cells were transferred to an approximately 1 mL bath tank embedded in an inverted microscope platform (Diaphot, Nikon), and the extracellular fluid was perfused at a perfusion rate of 2.7 mL/min. The experiment could be started after stabilization for 5 minutes and precipitation of cells. Membrane current was recorded by HEKAEPC-10 patch clamp amplifier and […] acquisition system (HEKA Instruments Inc., D-67466 Lambrecht/Pfalz Germany). All experiments were completed at room temperature (22-24° C.). During the experiment, a P-97 microelectrode control apparatus (Sutter Instrument Company, One Digital Drive, Novato, Calif. 94949) was used to […] the electrodes (BF150-110-10). The inner diameter of the electrode was 1-1.5 mm, and the inlet resistance after filling with the liquid was 2-4 MQ. Electrophysiological stimulation of the hERG potassium channel: firstly, the membrane voltage was clamped at −80 mV, and cells were given continuous stimulation of 2 s, +20 mV voltage, to activate hERG potassium ion channel and repolarization to −50 mV for 5 s, to generate outward tail current. The stimulation frequency was once every 15 seconds. The current value was the peak value of tail current. By measuring the maximum current value of the treatment group and the control group, the ratio of the maximum current value of the treatment group to the maximum current value of the control group (Mean±SE) was calculated, to evaluate the effect of the test compounds on the hERG potassium ion channel under the test concentration. Statistics and analysis of experimental data were performed by Origin 8.5 (OriginLab Corporation, Northampton, Mass.).

COCCOc1ccc2c(c1)ncn2-c1ccc(NC(=O)Nc2cc(C(C)(C)C)n[nH]2)cc1 [Compound 77, 1-(5-tert-butyl-2H-pyrazol-3-yl)-3-{4-[5-(2-methoxyl-ethoxyl)-benzimidazol-1-yl]-phenyl}-urea]
Mean Binding Rate (rat plasma protein; Rats, concentration 2 uM): 99.54%
Binding Rate (rat plasma protein; Rats, concentration 2 uM, single replicates): 99.46% and 99.58% and 99.60%
binding rate to the rat plasma protein (rat plasma protein; dialysis, 4 h, 37° C., test substance 2 uM, positive control 1 uM): 99.54%
Ratio (%) ([1]; Concentration 0.3 uM): 94.96%
Ratio (%) ([1]; Concentration 1 uM): 86.71%
Ratio (%) ([1]; Concentration 3 uM): 75.85%
Ratio (%) ([1]; Concentration 10 uM): 53.71%
Ratio (%) ([1]; Concentration 30 uM): 37.47%
blocking effect on the hERG potassium ion channel ([1]; within the range of test concentrations): a certain blocking effect
